*1 amine or outer side, *2 acyl side, *3 side chain or, on linkers, in order; H or OH if unused. Where a SMILES comes first, the peptide text is derived from it. Side-chain parts run from the residue outwards. [ ]: non-standard residue; d: D form. The star is where a group is joined. C20 diacid = O=C(O)CCCCCCCCCCCCCCCCCCC(=O)*; γGlu = O=C(O)[C@H](CCC(=O)[*:2])N[*:1]; εLys = N[C@@H](CCCCN[*:1])C(=O)[*:2]; Aib = CC(C)(N)C(=O)O
Experiments:
human GIP receptor = target: T1, human GIP receptor (Homo sapiens, UniProt P48546); assay: In vitro functional potency (CRE luciferase; whole cells), human GIPR; format: cell-based; conditions: BHK CRE luc2P hGIPR whole cells; Table 2; read-out: hGIPR CRE Luc EC50
T1 construct: expressed in transfected cells; host or cells: BHK cells (parent line BHKTS13) containing CRE luciferase
T1 sequence (P48546 22-466): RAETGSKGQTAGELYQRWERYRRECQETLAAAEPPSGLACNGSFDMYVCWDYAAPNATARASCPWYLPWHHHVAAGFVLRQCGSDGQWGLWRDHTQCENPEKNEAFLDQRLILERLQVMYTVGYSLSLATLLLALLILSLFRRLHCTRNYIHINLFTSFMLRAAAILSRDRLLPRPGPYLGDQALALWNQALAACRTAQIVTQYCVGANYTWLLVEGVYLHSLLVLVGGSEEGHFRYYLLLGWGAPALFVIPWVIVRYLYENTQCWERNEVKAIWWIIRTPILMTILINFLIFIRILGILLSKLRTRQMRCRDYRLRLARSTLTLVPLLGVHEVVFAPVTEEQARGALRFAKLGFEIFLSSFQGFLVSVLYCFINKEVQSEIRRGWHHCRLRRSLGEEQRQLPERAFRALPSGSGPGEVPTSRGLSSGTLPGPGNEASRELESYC
Description: (§1) The purpose of this example is to test the functional activity, or potency, of the compounds in vitro at the human and mouse GLP-1, GIP, and Gcg receptors. The in vitro functional potency is the measure of target receptor activation in a whole cell assay.
(§2) In vitro functional potency was determined by measuring the response of the target receptor in a reporter gene assay in individual cell lines. The assay was performed in stably transfected BHK cell lines that expresses one of the following G-protein coupled receptors: human GLP-1 receptor, human GIP receptor, human Gcg receptor, mouse GLP-1 receptor, mouse GIP receptor, or mouse Gcg receptor; and where each cell line contains the DNA for the cAMP response element (CRE) coupled to a promoter and the gene for firefly luciferase (CRE luciferase). When the respective receptor is activated, it results in the production of cAMP, which in turn results in expression of the luciferase protein. When assay incubation is completed, luciferase substrate (luciferin) is added resulting in the enzymatic conversion of luciferin to oxyluciferin and producing bioluminescence. The luminescence is measured as the readout for the assay.
(§3) The cells lines used in these assays were BHK cells with BHKTS13 as a parent cell line. The cell lines were derived from a clone containing the CRE luciferase element and were established by further transfection with the respective receptor to obtain the relevant cell line.
(§4) The cells were cultured at 37° C. with 5% CO2 in Cell Culture Medium. They were aliquoted and stored in liquid nitrogen. The cells were kept in continuous culture and were seeded out the day before each assay.
(§5) GLP-1R and GcgR Cell Culture Medium consisted of DMEM medium with 10% FBS, 500 µg/mL G418, and 300 µg/mL hygromycin. GIPR Cell Culture Medium consisted of DMEM medium with 10% FBS, 400 µg/mL G418, and 300 µg/mL hygromycin. Assay Buffer consisted of DMEM w/o phenol red, 10 mM Hepes, 1× Glutamax, 1% ovalbumin, and 0.1% Pluronic F-68.
(§6) • 1) Cells were plated at 5000 cells/well and incubated overnight in the assay plate. • 2) Cells were washed once in DPBS. • 3) Stocks of the test compounds and reference compounds in concentrations ranging from 100-300 pM were diluted 1:150 in Assay Buffer.
(§7) The data from the microtiter plate reader was first regressed in an Excel in order to calculate the x-axis, log scale concentrations based on the individual test compound's stock concentration and the dilutions of the assay. […] The software performs a non-linear regression (log(agonist) vs response). A minimum of two replicates was measured for each sample. The reported values are averages of the replicates.

human GLP-1 receptor = target: T2, human GLP-1 receptor (Homo sapiens, UniProt P43220); assay: In vitro functional potency (CRE luciferase; whole cells), human GLP-1R; format: cell-based
T2 construct: expressed in transfected cells; host or cells: BHK cells (parent line BHKTS13) containing CRE luciferase
T2 sequence (P43220 24-463): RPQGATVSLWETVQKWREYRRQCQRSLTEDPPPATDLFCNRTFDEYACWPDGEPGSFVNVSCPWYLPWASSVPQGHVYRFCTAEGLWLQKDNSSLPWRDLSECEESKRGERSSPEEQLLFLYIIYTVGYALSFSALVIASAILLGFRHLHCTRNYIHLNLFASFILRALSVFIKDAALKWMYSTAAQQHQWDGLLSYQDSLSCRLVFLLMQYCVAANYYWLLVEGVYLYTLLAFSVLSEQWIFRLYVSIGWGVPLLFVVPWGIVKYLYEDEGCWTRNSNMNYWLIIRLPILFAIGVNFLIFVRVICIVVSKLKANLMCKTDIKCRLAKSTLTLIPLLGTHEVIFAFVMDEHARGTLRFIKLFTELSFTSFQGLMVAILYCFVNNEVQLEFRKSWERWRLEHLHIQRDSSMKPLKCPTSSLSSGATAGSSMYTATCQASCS
Description: as §1, §2, §3, §4, §5, §6, §7

[1] = Pharmacokinetic study in minipigs, i.v. administration; set-up: species or system Göttingen minipigs; conditions: female, Göttingen, minipig, in vivo, iv; minipigs, i.v. administration, harmonic mean; read-out: Terminal half-life t1/2 (converted)
Description: The purpose of this example is to determine the half-life in vivo of the triple agonists as described herein after i.v. administration to minipigs, i.e. the prolongation of their time in the body and thereby their time of action. This is done in a pharmacokinetic (PK) study, where the terminal half-life of the triple agonist in question is determined. By terminal half-life is generally meant the period of time it takes to halve a certain plasma concentration, measured after the initial distribution phase.
Female Göttingen minipigs were obtained from Ellegaard Göttingen Minipigs (Dalmose, Denmark) approximately 7-14 months of age and weighing from approximately 16-35 kg were used in the studies. The minipigs were housed individually and fed restrictedly once daily with SDS minipig diet (Special Diets Services, Essex, UK).
After at 3 weeks of acclimatisation two permanent central venous catheters were implanted in vena cava caudalis in each animal. The animals were allowed 1 week recovery after the surgery, and were then used for repeated pharmacokinetic studies with a suitable wash-out period between successive dosings.
The animals were fasted for approximately 18 hours before dosing and from 0 to 4 hours after dosing, but had adlibitum access to water during the whole period.
Intravenous injections (the volume corresponding to usually 1.5-2 nmol/kg, for example 0.1 mL/kg) of the triple agonists were given through one catheter, and blood was sampled at predefined time points for up to 14 days post dosing (preferably through the other catheter). Blood samples (for example 0.8 mL) were collected in 8 mM EDTA buffer and then centrifuged at 4° C. and 1942 g for 10 minutes.
Plasma was pipetted into Micronic tubes on dry ice and kept at −20° C. until analysed for plasma concentration of the triple agonists using ELISA, or a similar antibody-based assay, or LCMS. Individual plasma concentration-time profiles were analysed by a non-compartmental model in Phoenix WinNonLin ver. 6.4. (Pharsight Inc., Mountain View, CA, USA), and the resulting terminal half-lives (harmonic mean) determined.

[2] = Pharmacodynamic study in DIO mice, daily s.c. dosing over 13 days (body weight, food intake); format: in vivo, C57BL/6J male mice; conditions: for Absolute BW (grams) Day 0: Day 0 (baseline); for Cumulative food intake (grams) Day 13: mean ± SEM, n = 2
Description: The purpose of this example is to assess the in vivo effect of selected triple agonists on pharmacodynamic parameters in diet-induced obese (DIO) mice. The animals were treated once daily via subcutaneous injection with a liquid formulation of the triple agonist to be tested to assess effects on body weight, foot intake, and glucose tolerance.
C57BL/6J male mice were purchased from Jackson Laboratories at approximately 8 weeks of age. Mice were group housed and fed a high-fat, high-sugar diet from Research Diets (D12331). Mice were maintained on this diet for 12 weeks prior to initializing the pharmacology studies. Mice exceeding a measured body weight of 50 grams were considered diet-induced obese (DIO) and included in pharmacology studies. Mice were exposed to a controlled 12 h:12 h light:dark cycle at ambient room temperature (22° C.) with ab libitum access to food and water. Studies were approved by and performed according to the guidelines of the Institutional Animal Care and Use Committee of the University of Cincinnati.
All compounds in the study were formulated in the following buffer: 50 mM phosphate; 70 mM sodium chloride; 0.05% Tween-80, pH 7.4. Dosing solutions were formulated in glass vials and stored at 2-8° C. Dosing solutions were brought to room temperature before dosing and returned to 2-8° C. after dosing.
The animals were grouped to receive treatment as follows: Vehicle or GLP-1/GIP/Gcg receptor triple agonists as described herein, where vehicle is 50 mM phosphate, 70 mM sodium chloride; 0.05% (v/v) Tween-80, pH 7.4. The test compounds were dissolved in the vehicle, to stock concentrations of […], then diluted 50- to 200-fold in the vehicle to achieve the desired dosing solution concentrations. Animals were dosed subcutaneously once daily in the morning for each day of treatment with dosing solution at a volume of 2-5 μL per gram of body weight as necessary to achieve the desired dose (e.g. 0.3 nmol/kg, 1.0 nmol/kg, or 3.0 nmol/kg).
Body weight (BW) and food intake were measured immediately prior to dosing each day. The percent change in body was calculated individually for each mouse based on initial body weight prior to the first injection.

[3] = daily s.c. dosing over 13 days, compared to vehicle

CC[C@H](C)[C@H](NC(=O)[C@H](CO)NC(=O)[C@H](Cc1ccc(O)cc1)NC(=O)[C@H](CC(=O)O)NC(=O)[C@H](CO)NC(=O)[C@@H](NC(=O)[C@H](Cc1ccccc1)NC(=O)[C@@H](NC(=O)CNC(=O)[C@H](Cc1c[nH]cn1)NC(=O)C(C)(C)NC(=O)[C@@H](N)Cc1ccc(O)cc1)[C@@H](C)O)[C@@H](C)O)C(=O)N[C@@H](Cc1ccc(O)cc1)C(=O)N[C@@H](CC(C)C)C(=O)N[C@@H](CCC(=O)O)C(=O)N[C@@H](CCCCNC(=O)[C@@H](N)CCCCNC(=O)[C@@H](N)CCCCNC(=O)CC[C@H](NC(=O)CCCCCCCCCCCCCCCCCCC(=O)O)C(=O)O)C(=O)N[C@@H](CCC(N)=O)C(=O)N[C@@H](C)C(=O)N[C@@H](C)C(=O)NC(C)(C)C(=O)N[C@@H](CCC(=O)O)C(=O)N[C@@H](Cc1ccccc1)C(=O)N[C@H](C(=O)N[C@@H](CCC(N)=O)C(=O)N[C@@H](Cc1c[nH]c2ccccc12)C(=O)N[C@@H](CC(C)C)C(=O)N[C@@H](CC(C)C)C(=O)N[C@@H](CCC(=O)O)C(=O)NCC(=O)NCC(=O)N1CCC[C@H]1C(=O)N[C@@H](CO)C(=O)N[C@@H](CO)C(=O)NCC(=O)N[C@@H](C)C(=O)N1CCC[C@H]1C(=O)N1CCC[C@H]1C(=O)N1CCC[C@H]1C(=O)N[C@@H](CO)C(N)=O)C(C)C [Compound No. 18] (H-Y[Aib]HGTFTSDYSIYLEK([εLys-εLys-γGlu-C20 diacid])QAA[Aib]EFVQWLLEGGPSSGAPPPS-NH2)
EC50 (human GIP receptor): 7.1 pM

CC[C@H](C)[C@H](NC(=O)[C@H](CO)NC(=O)[C@H](Cc1ccc(O)cc1)NC(=O)[C@H](CC(=O)O)NC(=O)[C@H](CO)NC(=O)[C@@H](NC(=O)[C@H](Cc1ccccc1)NC(=O)[C@@H](NC(=O)CNC(=O)[C@H](Cc1c[nH]cn1)NC(=O)C(C)(C)NC(=O)[C@@H](N)Cc1c[nH]cn1)[C@@H](C)O)[C@@H](C)O)C(=O)N[C@@H](Cc1ccc(O)cc1)C(=O)N[C@@H](CC(C)C)C(=O)N[C@@H](CC(=O)O)C(=O)N[C@@H](CCCCNC(=O)[C@@H](N)CCCCNC(=O)[C@@H](N)CCCCNC(=O)CC[C@H](NC(=O)CCCCCCCCCCCCCCCCCCC(=O)O)C(=O)O)C(=O)N[C@@H](CCC(N)=O)C(=O)N[C@@H](C)C(=O)N[C@@H](C)C(=O)NC(C)(C)C(=O)N[C@@H](CCC(=O)O)C(=O)N[C@@H](Cc1ccccc1)C(=O)N[C@H](C(=O)N[C@@H](CCC(N)=O)C(=O)N[C@@H](Cc1c[nH]c2ccccc12)C(=O)N[C@@H](CC(C)C)C(=O)N[C@@H](CC(C)C)C(=O)N[C@@H](CCC(=O)O)C(=O)NCC(=O)NCC(=O)N1CCC[C@H]1C(=O)N[C@@H](CO)C(=O)N[C@@H](CO)C(=O)NCC(=O)N[C@@H](C)C(=O)N1CCC[C@H]1C(=O)N1CCC[C@H]1C(=O)N1CCC[C@H]1C(=O)N[C@@H](CO)C(N)=O)C(C)C [Compound No. 28] (H-H[Aib]HGTFTSDYSIYLDK([εLys-εLys-γGlu-C20 diacid])QAA[Aib]EFVQWLLEGGPSSGAPPPS-NH2)
EC50 (human GIP receptor): 7.7 pM

CC(C)C[C@H](NC(=O)[C@H](CC(C)C)NC(=O)[C@H](Cc1c[nH]c2ccccc12)NC(=O)[C@H](CCC(N)=O)NC(=O)[C@@H](NC(=O)[C@H](Cc1ccccc1)NC(=O)[C@H](CCC(=O)O)NC(=O)C(C)(C)NC(=O)[C@H](C)NC(=O)[C@H](Cc1ccc(O)cc1)NC(=O)[C@H](CCC(N)=O)NC(=O)[C@H](CCCCNC(=O)[C@@H](N)CCCCNC(=O)[C@@H](N)CCCCNC(=O)CC[C@H](NC(=O)CCCCCCCCCCCCCCCCCCC(=O)O)C(=O)O)NC(=O)[C@H](CCC(=O)O)NC(=O)[C@H](CC(C)C)NC(=O)[C@H](Cc1ccc(O)cc1)NC(=O)[C@H](Cc1ccc(O)cc1)NC(=O)[C@H](CO)NC(=O)[C@H](Cc1ccc(O)cc1)NC(=O)[C@H](CC(=O)O)NC(=O)[C@H](CO)NC(=O)[C@@H](NC(=O)[C@H](Cc1ccccc1)NC(=O)[C@@H](NC(=O)CNC(=O)[C@H](Cc1c[nH]cn1)NC(=O)C(C)(C)NC(=O)[C@@H](N)Cc1c[nH]cn1)[C@@H](C)O)[C@@H](C)O)C(C)C)C(=O)N[C@@H](CCC(=O)O)C(=O)NCC(=O)NCC(=O)N1CCC[C@H]1C(=O)N[C@@H](CO)C(=O)N[C@@H](CO)C(=O)NCC(=O)N[C@@H](C)C(=O)N1CCC[C@H]1C(=O)N1CCC[C@H]1C(=O)N1CCC[C@H]1C(=O)N[C@@H](CO)C(N)=O [Compound No. 29] (H-H[Aib]HGTFTSDYSYYLEK([εLys-εLys-γGlu-C20 diacid])QYA[Aib]EFVQWLLEGGPSSGAPPPS-NH2)
EC50 (human GIP receptor): 7.2 pM

CC[C@H](C)[C@H](NC(=O)[C@H](CO)NC(=O)[C@H](Cc1ccc(O)cc1)NC(=O)[C@H](CC(=O)O)NC(=O)[C@H](CO)NC(=O)[C@@H](NC(=O)[C@H](Cc1ccccc1)NC(=O)[C@@H](NC(=O)CNC(=O)[C@H](Cc1c[nH]cn1)NC(=O)C(C)(C)NC(=O)[C@@H](N)Cc1c[nH]cn1)[C@@H](C)O)[C@@H](C)O)C(=O)N[C@@H](CC(C)C)C(=O)N[C@@H](CC(C)C)C(=O)N[C@@H](CCC(=O)O)C(=O)N[C@@H](CCCCNC(=O)[C@@H](N)CCCCNC(=O)[C@@H](N)CCCCNC(=O)CC[C@H](NC(=O)CCCCCCCCCCCCCCCCCCC(=O)O)C(=O)O)C(=O)N[C@@H](CCC(N)=O)C(=O)N[C@@H](C)C(=O)N[C@@H](C)C(=O)NC(C)(C)C(=O)N[C@@H](CCC(=O)O)C(=O)N[C@@H](Cc1ccccc1)C(=O)N[C@H](C(=O)N[C@@H](CCC(N)=O)C(=O)N[C@@H](Cc1c[nH]c2ccccc12)C(=O)N[C@@H](CC(C)C)C(=O)N[C@@H](CC(C)C)C(=O)N[C@@H](CCC(=O)O)C(=O)NCC(=O)NCC(=O)N1CCC[C@H]1C(=O)N[C@@H](CO)C(=O)N[C@@H](CO)C(=O)NCC(=O)N[C@@H](C)C(=O)N1CCC[C@H]1C(=O)N1CCC[C@H]1C(=O)N1CCC[C@H]1C(=O)N[C@@H](CO)C(N)=O)C(C)C [Compound No. 43] (H-H[Aib]HGTFTSDYSILLEK([εLys-εLys-γGlu-C20 diacid])QAA[Aib]EFVQWLLEGGPSSGAPPPS-NH2)
EC50 (human GLP-1 receptor): 3 pM | half-life [1]: 71 h | Absolute BW (grams) Day 0 ([2]; 1.0 nmol/kg group): 60.4 ± 1.0 grams | Absolute BW (grams) Day 13 ([2]; 1.0 nmol/kg s.c. once daily): 48.7 ± 1.4 grams | Change in BW (%) Day 13 ([2]; 1.0 nmol/kg s.c. once daily): −19.4 ± 1.5% | Cumulative food intake (grams) Day 13 ([2]; 1.0 nmol/kg s.c. once daily): 21.1 ± 3.3 grams | Absolute BW (grams) Day 0 ([2]; 3.0 nmol/kg group): 60.1 ± 1.9 grams | Absolute BW (grams) Day 13 ([2]; 3.0 nmol/kg s.c. once daily): 36.3 ± 1.0 grams | Change in BW (%) Day 13 ([2]; 3.0 nmol/kg s.c. once daily): −39.5 ± 1.3% | Cumulative food intake (grams) Day 13 ([2]; 3.0 nmol/kg s.c. once daily): 11.5 ± 2.4 grams | reduction in body weight (in words) [2, 3]: superior reduction | reduction in food intake (in words) [2, 3]: superior reduction

Source: US20230391845A1, “GLP-1, GIP AND GLUCAGON RECEPTOR TRIPLE AGONISTS” (priority 2020, published 2023)
